Common to all, as to type: physicochemical
The nature of data set [1]: Solubility study in FaSSIF and SGF (saturated solutions, HPLC). The conditions noted are these: for solubility at 1 h / solubility at 4 h: thermodynamic from solid. On the procedure:
Samples of Form CS2 of the present disclosure and Form A were suspended in FaSSIF (Fasted state simulated intestinal fluids) and SGF (Simulated gastric fluids) to get saturated solutions. The concentrations of the saturated solutions were measured by high performance liquid chromatography (HPLC) at fixed time points.

A short description of data set [2]: Solubility study in H2O (saturated solutions, HPLC). On the procedure:
Samples of Form CS1 of this present disclosure and Form A were suspended in H2O to get saturated solutions. After equilibrated for 1 h and 4 hours, the concentrations of the saturated solutions were measured by high performance liquid chromatography (HPLC).

Data set [3] can be described thus: Dissolution study (intrinsic dissolution rate, rotating disk). The following applies: for Cumulative dissolution: phosphate buffer pH 6.8, 37° C.; for intrinsic dissolution rate: linear fit of cumulative dissolution with time, phosphate buffer pH 6.8. On the procedure:
The dissolution data were collected on an Agilent 708-DS.
100 mg of Form CS2 and Form A were added into the die of intrinsic dissolution rate (IDR) tooling, and then compressed at 12 KN for 1 min.
Dissolution medium: phosphate buffer (pH 6.8)
Dissolution method: rotating disk
Revolving speed: 1000 rpm
Medium temperature: 37° C.

The next data set can be described thus: Particle size study. On the procedure: Particle size distribution of Forms CS1 and Form CS2 of the present disclosure and Form A of the prior art are tested. The average particle size of Form A is 12.58 μm, which is too small to be isolated effectively in the crystallization process. The Average particle sizes of Forms CS1 and Form CS2 are 175.0 μm and 151.9 μm, which are much larger than that of Form A. Compared with Form A, Form CS1 and Form CS2 with large particle size have less electrostatic attraction and can be separated more easily during the crystallization process. Moreover, the mixing non uniformity in the preparation process can be avoided, the quality of the drug is more controllable. At the same time, the crystal growth of the large particle size crystals is more perfect, and the adsorption of the solvent or the impurity on the crystals can be avoided, which is more helpful for purification.

Data set [4] in a line: Stability study at 25° C./60% RH (XRPD, purity). The conditions noted are these: one month and three months. On the procedure:
Approximately 10 mg of Form CS2 were stored in a temperature and humidity controlled chamber at 25° C./60% RH, and samples were taken for XRPD at the beginning and after stored for one month and three months. The results are as depicted in FIG. 13.

Converted amounts (≈) assume the structure as drawn. Like-named read-outs stand apart in the source and are kept apart here.

Consider `COc1cc(N2CCC(N3CCN(C)CC3)CC2)ccc1Nc1ncc(Cl)c(Nc2ccccc2P(C)(C)=O)n1` [Form A, AP26113], for which the “Solubility FaSSIF” value in data set [1] (FaSSIF, 1 h) stood at 6900 µg/mL (≈ 11.8 mM); in data set [1] (FaSSIF, 4 h), 7200 µg/mL (≈ 12.3 mM). Further, the “solubility in SGF (in words)” value in data set [1] (SGF) is recorded as “good solubility”. Moreover, the “Solubility SGF” value in data set [1] (SGF, 1 h) turned out to be 10900 µg/mL (≈ 18.7 mM); in data set [1] (SGF, 4 h), 10900 µg/mL (≈ 18.7 mM). Moreover, the “Solubility H2O” value in data set [2] (1 h) turned out to be 61 µg/mL (≈ 0.104 mM); in data set [2] (4 h), 67 µg/mL (≈ 0.115 mM). In addition, the “solubility in water (in words)” value in data set [2] (water) was “poor”. Moreover, the Cumulative dissolution worked out at 0.6 mg in data set [3] (10 min); 0.9 mg in data set [3] (15 min); 1.1 mg in data set [3] (20 min); 1.4 mg in data set [3] (25 min); 1.6 mg in data set [3] (30 min). Besides, the intrinsic dissolution rate in data set [3] is on record as 0.052 mg/min. The compound further showed an average particle size in the data set “Particle size study” of 12.58 μm.
Usually solubility stands for the dissolved amount per volume that the medium holds. `COc1cc(N2CCC(N3CCN(C)CC3)CC2)ccc1Nc1ncc(Cl)c(Nc2ccccc2P(C)(C)=O)n1` [Form CS2, AP26113]: in data set [1] (FaSSIF, one hour, relative to Form A), the “solubility higher than that of Form A” value was 43%. In addition, the solubility at 1 h is 9900 µg/mL (≈ 16.9 mM) in data set [1] (FaSSIF, FaSSIF, 1 h, read-out: Solubility FaSSIF) and 11200 µg/mL (≈ 19.2 mM) in data set [1] (SGF, simulated gastric fluid, SGF, 1 h, read-out: Solubility SGF). Further, the solubility at 4 h is 9600 µg/mL (≈ 16.4 mM) in data set [1] (FaSSIF, FaSSIF, 4 h, read-out: Solubility FaSSIF) and 12100 µg/mL (≈ 20.7 mM) in data set [1] (SGF, simulated gastric fluid, SGF, 4 h, read-out: Solubility SGF). Moreover, the “solubility in SGF (in words)” value in data set [1] (SGF) is given as “good solubility”. In addition, the Cumulative dissolution in data set [3] (10 min) worked out at 6.4 mg; in data set [3] (15 min), 8.0 mg; in data set [3] (20 min) it was 9.4 mg; in data set [3] (25 min) it was 10.7 mg; in data set [3] (30 min), 11.8 mg. For the same compound, the intrinsic dissolution rate in data set [3] stood at 0.268 mg/min. The “dissolution rate, times higher than that of Form A” value in data set [3] (relative to Form A) was found to be 5 times. The purity after storage entry in data set [4] (beginning) was “above 99%”. The “crystalline form after storage (XRPD)” value in data set [4] is reported as “doesn't change”. This compound gave an average particle size in the data set “Particle size study” of 151.9 μm.
In the case of `COc1cc(N2CCC(N3CCN(C)CC3)CC2)ccc1Nc1ncc(Cl)c(Nc2ccccc2P(C)(C)=O)n1` [Form CS1, AP26113], the “Solubility H2O” value in data set [2] (1 h) came to 1000 µg/mL (≈ 1.71 mM); in data set [2] (4 h), 610 µg/mL (≈ 1.04 mM). Further, in data set [2] (water, relative to Form A), the “solubility in water, times higher than that of Form A” value stood at 16 times. This compound also yielded an average particle size in “Particle size study” of 175.0 μm.

Values taken from US10544129B2, “Crystalline forms of AP26113, and preparation method thereof” (Crystal Pharmatech Co., Ltd., priority 2016, dated 2020).
